IC50 data for 17 compounds are collected here from US12485132B2, “GPX4 inhibitors and senolytic compounds and uses thereof” (Rubedo Life Sciences, Inc., priority 2023, dated 2025).

Molecules are shown by their SMILES.

In the test the test system is senescent HEPG2 cells. Description: Senescence assay: viability of senescent HEPG2 cells. It counts as cell-based. The settings on record: Homo sapiens, 24-72 hours incubation, viability by CellTiter-Glo or XTT, read-out: Absolute IC50 average HEPG2_SEN IC50. How it is done: Cells were maintained in DMEM media (high glucose, 4 mM L-glutamine, no sodium pyruvate) supplemented with 10% fetal bovine serum in a humidified incubator at 37° C. with 5% carbon dioxide. Senescence was induced via treatment with a sublethal concentration of chemotherapy (bleomycin, gemcitabine, doxorubicin, 5-fluorouridine), followed by a rest period without chemotherapy similarly to what is reported by others in the field (e.g., Aoshiba et al., 2003 Eur Respir J 22:436-443). Senescence was qualified by low EdU (5-ethynyl-2′-deoxyuridine) incorporation and high SA-β-Gal (senescence-associated beta-galactosidase) staining compared to proliferating untreated cells. Senescent cells were plated into 96-well plates at a density of 5-15,000 cells/well. The next day, compounds were added in duplicate across ten different concentrations spanning roughly four Log10 units. Cells were incubated with the compounds for 24-72 hours, at which point viability was quantified using CellTiter-Glo (Promega) or XTT (R&D Systems). The viability for treated cells was determined relative to untreated control cells. The log of the compound concentration vs. normalized mean viability was fit to a four parameters Hill function with variable slope. The bottom was constrained to be greater than zero. The X mean value for Y=50 was interpolated to determine the absolute IC50. The results in Table 2 indicate that many of the compounds are active in cells and can induce a dose dependent decrease in the viability of senescent HEPG2 and A549 cells.

For orientation: IC50 means the concentration at which inhibition is half-maximal.

For `C#CC(F)(F)[C@]1(O)CC[C@H]2[C@@H]3CCC4=C/C(=N\O[C@H]5C[C@H](O)[C@H](O)[C@H](C)O5)CCC4=C3[C@H](c3ccc(C4CC4)cc3)C[C@@]21C` [Compound 6, (8S,11S,13S,14S,17S,Z)-11-(4-cyclopropylphenyl)-17-(1,1-difluoroprop-2-yn-1-yl)-17-hydroxy-13-methyl-1,2,6,7,8,11,12,13,14,15,16,17-dodecahydro-3H-cyclopenta[a]phenanthren-3-one O-((2S,4S,5S,6S)-4,5-dihydroxy-6-methyltetrahydro-2H-pyran-2-yl) oxime], the IC50 was in the range of 0.1 to 10 nM.
With `C#CC(F)(F)[C@]1(O)CC[C@H]2[C@@H]3CCC4=C/C(=N/NC(N)=O)CCC4=C3[C@H](c3ccc(C4CC4)cc3)C[C@@]21C` [Compound 41, (E)-2-((8S,11S,13S,14S,17S)-11-(4-cyclopropylphenyl)-17-(1,1-difluoroprop-2-yn-1-yl)-17-hydroxy-13-methyl-1,2,6,7,8,11,12,13,14,15,16,17-dodecahydro-3H-cyclopenta[a]phenanthren-3-ylidene)hydrazine-1-carboxamide] the figure was 0.1 to 10 nM; with `C#CC(F)(F)[C@]1(O)CC[C@H]2[C@@H]3CCC4=C/C(=N/O[C@@H]5O[C@@H](C)[C@@H](O)[C@@H](O)[C@@H]5O)CCC4=C3[C@@H](c3ccc(C4CC4)cc3)C[C@@]21C` [Compound 20, (8S,11R,13S,14S,17S,E)-11-(4-cyclopropylphenyl)-17-(1,1-difluoroprop-2-yn-1-yl)-17-hydroxy-13-methyl-1,2,6,7,8,11,12,13,14,15,16,17-dodecahydro-3H-cyclopenta[a]phenanthren-3-one O-((2S,3S,4R,5S,6S)-3,4,5-trihydroxy-6-methyltetrahydro-2H-pyran-2-yl) oxime], 0.1 to 10 nM; with `C#CC(F)(F)[C@]1(O)CC[C@H]2[C@@H]3CCC4=C/C(=N/N)CCC4=C3[C@H](c3ccc(C4CC4)cc3)C[C@@]21C` [Compound 27, (8S,11S,13S,14S,17S,E)-11-(4-cyclopropylphenyl)-17-(1,1-difluoroprop-2-yn-1-yl)-3-hydrazineylidene-13-methyl-2,3,6,7,8,11,12,13,14,15,16,17-dodecahydro-1H-cyclopenta[a]phenanthren-17-ol], 10 to 100 nM.
With `C#CC(F)(F)[C@]1(O)CC[C@H]2[C@@H]3CCC4=C/C(=N/NC(=O)COC)CCC4=C3[C@H](c3ccc(C4CC4)cc3)C[C@@]21C` [Compound 36, N′-((8S,11S,13S,14S,17S,E)-11-(4-cyclopropylphenyl)-17-(1,1-difluoroprop-2-yn-1-yl)-17-hydroxy-13-methyl-1,2,6,7,8,11,12,13,14,15,16,17-dodecahydro-3H-cyclopenta[a]phenanthren-3-ylidene)-2-methoxyacetohydrazide] the figure was 0.1 to 10 nM; with `C#CC(F)(F)[C@]1(O)CC[C@H]2[C@@H]3CCC4=C/C(=N/NC(=O)O[C@@H]5O[C@@H](C)[C@@H](OC(C)=O)[C@@H](OC(C)=O)[C@@H]5OC(C)=O)CCC4=C3[C@H](c3ccc(C4CC4)cc3)C[C@@]21C` [Compound 30, (2S,3S,4R,5R,6S)-2-((2-((8S,11S,13S,14S,17S,E)-11-(4-cyclopropylphenyl)-17-(1,1-difluoroprop-2-yn-1-yl)-17-hydroxy-13-methyl-1,2,6,7,8,11,12,13,14,15,16,17-dodecahydro-3H-cyclopenta[a]phenanthren-3-ylidene)hydrazine-1-carbonyl)oxy)-6-methyltetrahydro-2H-pyran-3,4,5-triyl triacetate], 0.1 to 10 nM.
Under `C#CC(F)(F)[C@]1(O)CC[C@H]2[C@@H]3CCC4=C/C(=N/O[C@H]5C[C@H](O)[C@H](O)[C@H](C)O5)CCC4=C3[C@H](c3ccc(C4CC4)cc3)C[C@@]21C` [Compound 5, (8S,11S,13S,14S,17S,E)-11-(4-cyclopropylphenyl)-17-(1,1-difluoroprop-2-yn-1-yl)-17-hydroxy-13-methyl-1,2,6,7,8,11,12,13,14,15,16,17-dodecahydro-3H-cyclopenta[a]phenanthren-3-one O-((2S,4S,5S,6S)-4,5-dihydroxy-6-methyltetrahydro-2H-pyran-2-yl) oxime] stands 10 to 100 nM; under `C#CC(F)(F)[C@]1(O)CC[C@H]2[C@@H]3CCC4=C/C(=N\OCCOCCO)CCC4=C3[C@@H](c3ccc(C4CC4)cc3)C[C@@]21C` [Compound 11, (8S,11R,13S,14S,17S,Z)-11-(4-cyclopropylphenyl)-17-(1,1-difluoroprop-2-yn-1-yl)-17-hydroxy-13-methyl-1,2,6,7,8,11,12,13,14,15,16,17-dodecahydro-3H-cyclopenta[a]phenanthren-3-one O-(2-(2-hydroxyethoxy)ethyl)oxime], 0.1 to 10 nM; under `C#CC(F)(F)[C@]1(O)CC[C@H]2[C@@H]3CCC4=C/C(=N/OCCOCCO)CCC4=C3[C@@H](c3ccc(C4CC4)cc3)C[C@@]21C` [Compound 12, (8S,11R,13S,14S,17S,E)-11-(4-cyclopropylphenyl)-17-(1,1-difluoroprop-2-yn-1-yl)-17-hydroxy-13-methyl-1,2,6,7,8,11,12,13,14,15,16,17-dodecahydro-3H-cyclopenta[a]phenanthren-3-one O-(2-(2-hydroxyethoxy)ethyl)oxime], 0.1 to 10 nM.
As for `C#CC(F)(F)[C@]1(O)CC[C@H]2[C@@H]3CCC4=C/C(=N/OCCOCCOCCOC)CCC4=C3[C@@H](c3ccc(C4CC4)cc3)C[C@@]21C` [Compound 15, (8S,11R,13S,14S,17S,E)-11-(4-cyclopropylphenyl)-17-(1,1-difluoroprop-2-yn-1-yl)-17-hydroxy-13-methyl-1,2,6,7,8,11,12,13,14,15,16,17-dodecahydro-3H-cyclopenta[a]phenanthren-3-one O-(2-(2-(2-methoxyethoxy)ethoxy)ethyl)oxime], the IC50 lay within 10 to 100 nM.
Under `C#CC(F)(F)[C@]1(O)CC[C@H]2[C@@H]3CCC4=C/C(=N/NC(=O)CN)CCC4=C3[C@H](c3ccc(C4CC4)cc3)C[C@@]21C` [Compound 35, 2-amino-N′-((8S,11S,13S,14S,17S,E)-11-(4-cyclopropylphenyl)-17-(1,1-difluoroprop-2-yn-1-yl)-17-hydroxy-13-methyl-1,2,6,7,8,11,12,13,14,15,16,17-dodecahydro-3H-cyclopenta[a]phenanthren-3-ylidene)acetohydrazide] stands 0.1 to 10 nM; under `C#CC(F)(F)[C@]1(O)CC[C@H]2[C@@H]3CCC4=C/C(=N/NC(=O)O[C@@H]5O[C@H](COC(C)=O)[C@H](OC(C)=O)[C@H](OC(C)=O)[C@H]5OC(C)=O)CCC4=C3[C@H](c3ccc(C4CC4)cc3)C[C@@]21C` [Compound 28, (2R,3S,4S,5R,6S)-2-(acetoxymethyl)-6-((2-((8S,11S,13S,14S,17S,E)-11-(4-cyclopropylphenyl)-17-(1,1-difluoroprop-2-yn-1-yl)-17-hydroxy-13-methyl-1,2,6,7,8,11,12,13,14,15,16,17-dodecahydro-3H-cyclopenta[a]phenanthren-3-ylidene)hydrazine-1-carbonyl)oxy)tetrahydro-2H-pyran-3,4,5-triyl triacetate], 10 to 100 nM.
With `C#CC(F)(F)[C@]1(O)CC[C@H]2[C@@H]3CCC4=C/C(=N\OCCOCCOCCOC)CCC4=C3[C@@H](c3ccc(C4CC4)cc3)C[C@@]21C` [Compound 14, (8S,11R,13S,14S,17S,Z)-11-(4-cyclopropylphenyl)-17-(1,1-difluoroprop-2-yn-1-yl)-17-hydroxy-13-methyl-1,2,6,7,8,11,12,13,14,15,16,17-dodecahydro-3H-cyclopenta[a]phenanthren-3-one O-(2-(2-(2-methoxyethoxy)ethoxy)ethyl)oxime] the figure was 0.1 to 10 nM; with `C#CC(F)(F)[C@]1(O)CC[C@H]2[C@@H]3CCC4=CC(=NOCCOCCOCCOCCNC(=O)CCCCC5SCC6NC(=O)NC65)CCC4=C3[C@@H](c3ccc(C4CC4)cc3)C[C@@]21C` (some centres unmarked) [compound 21], 0.1 to 10 nM.
On to `C#CC(F)(F)[C@]1(O)CC[C@H]2[C@@H]3CCC4=C/C(=N/NC(=O)NCC5CC5)CCC4=C3[C@H](c3ccc(C4CC4)cc3)C[C@@]21C` [Compound 50, (E)-N-(cyclopropylmethyl)-2-((8S,11S,13S,14S,17S)-11-(4-cyclopropylphenyl)-17-(1,1-difluoroprop-2-yn-1-yl)-17-hydroxy-13-methyl-1,2,6,7,8,11,12,13,14,15,16,17-dodecahydro-3H-cyclopenta[a]phenanthren-3-ylidene)hydrazine-1-carboxamide], for which the IC50 lay within 0.1 to 10 nM.
Turning to `C#CC(F)(F)[C@]1(O)CC[C@H]2[C@@H]3CCC4=C/C(=N/NC(=O)OCC)CCC4=C3[C@H](c3ccc(C4CC4)cc3)C[C@@]21C` [Compound 40, ethyl (E)-2-((8S,11S,13S,14S,17S)-11-(4-cyclopropylphenyl)-17-(1,1-difluoroprop-2-yn-1-yl)-17-hydroxy-13-methyl-1,2,6,7,8,11,12,13,14,15,16,17-dodecahydro-3H-cyclopenta[a]phenanthren-3-ylidene)hydrazine-1-carboxylate], the IC50 lay in the range of 0.1 to 10 nM.
Under `C#CC(F)(F)[C@]1(O)CC[C@H]2[C@@H]3CCC4=C/C(=N\OCCOC)CCC4=C3[C@@H](c3ccc(C4CC4)cc3)C[C@@]21C` [Compound 2, (8S,11R,13S,14S,17S,Z)-11-(4-cyclopropylphenyl)-17-(1,1-difluoroprop-2-yn-1-yl)-17-hydroxy-13-methyl-1,2,6,7,8,11,12,13,14,15,16,17-dodecahydro-3H-cyclopenta[a]phenanthren-3-one O-(2-methoxyethyl)oxime] stands 10 to 100 nM.
